Laboratory results taken from patent EP1816136A1, “GPR7-SELECTIVE LIGAND AND USE THEREOF” (BANYU PHARMACEUTICAL CO., LTD., priority 2004, dated 2006).
Non-standard residues stand in square brackets, D forms with d. Residues, ends and D or L forms follow the SMILES beside them. Ava = NCCCCC(=O)O

Tests used:
[1] = biological target: T1, GPR7 (Homo sapiens, UniProt P48145); experiment: Binding inhibition test with [125I]-[Phe2]-hNPW(1-23), GPR7 membrane preparation; conditions: Table 1, membrane preparation of HEK293/CRE-BLA cells expressing GPR7, 1 hour at room temperature
T1 construct: expressed in transfected cells; host or cells: HEK293/CRE-BLA cells (AURORA), expression vector pIRES-hygro (Clontech)
T1 sequence (P48145 1-328): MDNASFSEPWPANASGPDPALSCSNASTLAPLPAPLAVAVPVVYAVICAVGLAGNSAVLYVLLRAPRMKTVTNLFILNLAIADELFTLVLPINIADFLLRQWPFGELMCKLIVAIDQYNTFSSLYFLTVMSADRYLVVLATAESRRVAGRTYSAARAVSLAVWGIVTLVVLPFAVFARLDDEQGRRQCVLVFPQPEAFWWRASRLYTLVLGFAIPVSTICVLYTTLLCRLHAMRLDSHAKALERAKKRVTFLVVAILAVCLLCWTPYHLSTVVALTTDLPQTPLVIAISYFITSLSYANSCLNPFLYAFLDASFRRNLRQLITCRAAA
Method: (§1) One nmol of [Phe2]-hNPW(1-23) (prepared in Synthesis Example 19) was dissolved in 5 µL of anhydrous DMSO, and the solution was mixed with 0.1M nickel chloride. Then, the mixture was mixed with 10 µL of a 0.00 1 % aqueous solution of hydrogen peroxide, 10 µL of an enzyme solution (lactoperoxidase (Sigma) adjusted to 10 µg/mL with a 0.1M HEPES buffer solution), and 37 Mbq/10 µL of Iodine-125 (Amersham), whereafter the resulting mixture was reacted for 60 minutes at room temperature. The reaction was terminated with the addition of 10 µL of 1% sodium azide, and then a radiolabeled peptide fraction was collected by a PD-10 gel filtration column (Amersham) to obtain [^125I]-[Phe2]-hNPW(1-23).
(§2) A cDNA sequence coding for human GPR7 or GPR8 [see Genomics, vol. 28, p. 84 (1995)] was amplified by the PCR method, and cloned using the expression vector pIRES-hygro (Clontech). The resulting expression vector was transfected into HEK293/CRE-BLA cells (AURORA) using the cationic lipid method [see Proceedings of the National Academy of Sciences of the United States of America, vol. 84, p. 7413 (1987)] to obtain GPR7 or GPR8 expression cells.
(§3) A membrane preparation prepared from the cells expressing GPR7 or GPR8 was incubated for 1 hour at room temperature in an assay buffer solution (25 mM Tris buffer solution, 150 mM NaCl, pH 7.4) together with a test compound and 28,000 cpm of [^125I]-[Phe2]-hNPW(1-23). Then, the system was filtered through the glass filter GF/C. After washing with 25 mM Tris buffer solution (pH 7.4), radioactivity on the glass filter was measured. Nonspecific binding was measured in the presence of 1 µM hNPW (prepared in Synthesis Example 1), and the 50% inhibition concentration (IC50 value) of the test compound against [Phe2]-hNPW(1-23) specific binding was calculated [see Molecular Pharmacology, vol. 55, 1101 (1999)].

[2] = biological target: T2, GPR8 (Homo sapiens, UniProt P48146); experiment: Binding inhibition test with [125I]-[Phe2]-hNPW(1-23), GPR8 membrane preparation; conditions: Table 1, membrane preparation of HEK293/CRE-BLA cells expressing GPR8, 1 hour at room temperature
T2 construct: expressed in transfected cells; host or cells: HEK293/CRE-BLA cells (AURORA), expression vector pIRES-hygro (Clontech)
Method: as §1, §2, §3

[3] = biological target: T1, GPR7; experiment: Measurement of activation capacity on GPR7 (CRE-BLA beta-lactamase reporter assay); assay type: cell-based; conditions: Table 1; HEK293/CRE-BLA cells expressing GPR7; forskolin 1 µM; 3 hours at 37°C
Source text: as §2
(§4) In accordance with the method of Zlakarmik (see Science, 1998, vol. 279, p. 84), the activity of various synthetic peptides on GPR7 or GPR8 was measured. HEK293/CRE-BLA cells which expressed GPR7 or GPR8 (prepared in (2) of Test Example 1) were washed twice with PBS(-) buffer solution (GIBCO-BRL), and then Cell-dissociation buffer (GIBCO-BRL) was added. The system was kept at 37°C for 3 minutes in a CO2 incubator, and a culture flask was tapped to liberate the cells from the flask. After the cells were harvested by centrifugation, the cells were suspended in an Opti-MEM culture medium (GIBCO-BRL) containing 0.1 % BSA (Sigma) to count the cells and prepare a cell suspension containing 8×10^5 cells/mL. To 2 µL of a DMSO solution containing each test compound with a concentration of 50 times an end concentration, 50 µL of the 0.1% BSA-containing Opti-MEM medium incorporating forskolin (Sigma) so as to have an end concentration of 1 µM was added to form a reaction solution. To this reaction solution, 50 µL of the above cell suspension was added to initiate the reaction, and the system was incubated for 3 hours at 37°C in a CO2 incubator.
(§5) Then, using a BLA assay kit (AURORA), a coloring matter-introduced buffer solution incorporating 12 µL of Solution A [1 mM CCF2-AM/anhydrous DMSO solution], 120 µL of Solution B [100 mg/mL Pluronic 127, 0.1% acetic acid/DMSO solution], and 2 mL of Solution C [24% (w/w) PEG-400, 18% TR40/H2O] was prepared. This coloring matter-introduced buffer solution (20 µL) was added to the above-mentioned cell reaction mixture to introduce a β-lactamase substrate (CCF2-AM) into the cells. After the system was allowed to stand for 1 hour at room temperature, the fluorescence intensities of the sample at an excitation wavelength of 409 nm, at a fluorescence wavelength of 460 nm (a β-lactamase hydrolyzate of CCF), and at 530 nm (CCF) were measured. With β-lactamase activity (fluorescence intensity at 460 nm/fluorescence intensity at 530 nm) as an indicator, the activity of each of various peptides on GPR7 or GPR8 was measured, and the 50% effective concentration (EC50) of the test compound was calculated.

[4] = biological target: T2, GPR8; experiment: Measurement of activation capacity on GPR8 (CRE-BLA beta-lactamase reporter assay); assay type: cell-based; conditions: Table 1; HEK293/CRE-BLA cells expressing GPR8; forskolin 1 µM; 3 hours at 37°C; read-out: GPR8 (nM) EC 50
Source text: as §2, §4, §5

T2 sequence (P48146 whole entry): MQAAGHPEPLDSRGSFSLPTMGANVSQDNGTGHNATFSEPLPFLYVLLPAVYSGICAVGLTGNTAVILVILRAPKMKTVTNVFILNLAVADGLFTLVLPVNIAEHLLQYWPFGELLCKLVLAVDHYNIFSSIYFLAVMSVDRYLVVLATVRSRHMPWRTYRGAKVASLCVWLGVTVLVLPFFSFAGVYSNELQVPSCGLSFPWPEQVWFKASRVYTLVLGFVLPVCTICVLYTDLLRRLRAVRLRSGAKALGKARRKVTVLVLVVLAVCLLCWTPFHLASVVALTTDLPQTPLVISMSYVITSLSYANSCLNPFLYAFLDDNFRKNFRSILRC

IC50 [1]	IC50 [2]	EC50 [3]	EC50 [4]	Compound
0.47 nM	300 nM	2.2 nM	94 nM	CC(C)C[C@H](NC(=O)CNC(=O)[C@H](CO)NC(=O)[C@H](CC(C)C)NC(=O)[C@H](CC(C)C)NC(=O)CNC(=O)[C@H](C)NC(=O)[C@H](C)NC(=O)[C@H](CCCNC(=N)N)NC(=O)CNC(=O)CCCCNC(=O)CCCCNC(=O)[C@H](CCCCN)NC(=O)[C@H](Cc1ccc(O)cc1)NC(=O)[C@@H](N)Cc1c[nH]c2ccccc12)C(N)=O [compound 6] (H-WYK[Ava][Ava]GRAAGLLSGL-NH2)
1.1 nM	360 nM	1.2 nM	51 nM	CC(C)C[C@H](NC(=O)CNC(=O)[C@H](CO)NC(=O)[C@H](CC(C)C)NC(=O)[C@H](CC(C)C)NC(=O)CNC(=O)[C@H](C)NC(=O)[C@H](C)NC(=O)[C@H](CCCNC(=N)N)NC(=O)CNC(=O)CCCCNC(=O)CCCCNC(=O)CCCCNC(=O)CCCCNC(=O)[C@H](CCCCN)NC(=O)[C@H](Cc1ccc(O)cc1)NC(=O)[C@@H](N)Cc1c[nH]c2ccccc12)C(N)=O [compound 8] (H-WYK[Ava][Ava][Ava][Ava]GRAAGLLSGL-NH2)
0.23 nM	24 nM	0.24 nM	0.86 nM	CC(C)C[C@H](NC(=O)CNC(=O)[C@H](CO)NC(=O)[C@H](CC(C)C)NC(=O)[C@H](CC(C)C)NC(=O)CNC(=O)[C@H](C)NC(=O)[C@H](C)NC(=O)[C@H](CCCNC(=N)N)NC(=O)CNC(=O)[C@@H](NC(=O)[C@H](CO)NC(=O)[C@H](Cc1ccc(O)cc1)NC(=O)[C@H](CO)NC(=O)[C@H](CO)NC(=O)[C@H](Cc1cnc[nH]1)NC(=O)CNC(=O)[C@H](C)NC(=O)[C@H](C)NC(=O)[C@@H]1CCCN1C(=O)[C@H](CCCCN)NC(=O)[C@H](Cc1ccc(O)cc1)NC(=O)[C@@H](N)Cc1c[nH]c2ccccc12)C(C)C)C(N)=O [compound 4]
